The values that follow are results of earlier work, collected in patent US20070208072A1, “Maleate salt of tegaserod and crystalline forms thereof” (priority 2006, published 2007).

For this data set the following is noted: white to off-white crystalline powder.

Regarding `CCCCCNC(=N)N/N=C/c1c[nH]c2ccc(OC)cc12.O=C(O)/C=C\C(=O)O` [Tegaserod maleate], the solubility in ethanol result (ethanol) was “slightly soluble”. Besides, for the setting “water”, the solubility in water entry was “very slightly soluble”.
